Columns and labels:
Assay in all cases: relative viability (nuclei count vs DMSO), 5 days (fraction); higher = more cells survive
[1] = compound: O=C(O)c1ccc2c(c1)nc(Nc1cccc(Cl)c1)c1ccncc12 [Silmitasertib] + CC1(C)CCC(c2ccc(Cl)cc2)=C(CN2CCN(c3ccc(C(=O)NS(=O)(=O)c4ccc(N[C@H](CCN5CCOCC5)CSc5ccccc5)c(S(=O)(=O)C(F)(F)F)c4)cc3)CC2)C1 [Navitoclax] (partner 0.5 µM)
How it was run: (§1)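 A single step with final 0.05% Triton X-100, 1% formaldehyde and 1 ug/ml Hoechst fixed the cells and stained nuclei 5 days after treatment. Lung cancer cell lines in 1536-well plates had been treated by pin tool the day after seeding with one drug alone or a fixed anchor-drug dose plus five library-drug doses (not always all listed) in √10 steps, and nuclei were counted on 4× images. Relative viability is the ratio of nuclei in treated wells to nuclei in vehicle wells, taken as the median of duplicate plates.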

[2] = compound: O=C(O)c1ccc2c(c1)nc(Nc1cccc(Cl)c1)c1ccncc12 [Silmitasertib] + COc1cc2c(Oc3ccc(NC(=O)C4(C(=O)Nc5ccc(F)cc5)CC4)cc3F)ccnc2cc1OCCCN1CCOCC1 [Foretinib] (partner 0.25 µM)
How it was run: as §1

[3] = compound: O=C(O)c1ccc2c(c1)nc(Nc1cccc(Cl)c1)c1ccncc12 [Silmitasertib] + COc1cccc2cc(-c3nc([C@H]4CC[C@H](C(=O)O)CC4)n4ncnc(N)c34)[nH]c12 [OSI-027] (partner 0.5 µM)
How it was run: as §1

[4] = compound: O=C(O)c1ccc2c(c1)nc(Nc1cccc(Cl)c1)c1ccncc12 [Silmitasertib] + Cc1cc(Nc2cc(N3CCN(C)CC3)nc(Sc3ccc(NC(=O)C4CC4)cc3)n2)n[nH]1 [Tozasertib] (partner 0.1 µM)
How it was run: as §1

[5] = compound: O=C(O)c1ccc2c(c1)nc(Nc1cccc(Cl)c1)c1ccncc12 [Silmitasertib] + Nc1nc2[nH]cc(CCc3ccc(C(=O)N[C@@H](CCC(=O)O)C(=O)O)cc3)c2c(=O)[nH]1 [Pemetrexed] (partner 0.2 µM)
How it was run: as §1

Row | Cell Line | relative viability ([1]; first compound 0.04 µM) | relative viability ([1]; first compound 1.265 µM) | relative viability ([1]; first compound 4 µM) | relative viability ([2]; first compound 0.04 µM) | relative viability ([2]; first compound 0.4 µM) | relative viability ([2]; first compound 1.265 µM) | relative viability ([2]; first compound 4 µM) | relative viability ([3]; first compound 0.04 µM) | relative viability ([3]; first compound 0.4 µM) | relative viability ([3]; first compound 1.265 µM) | relative viability ([3]; first compound 4 µM) | relative viability ([4]; first compound 0.04 µM) | relative viability ([4]; first compound 0.4 µM) | relative viability ([4]; first compound 1.265 µM) | relative viability ([4]; first compound 4 µM) | relative viability ([5]; first compound 0.04 µM) | relative viability ([5]; first compound 0.4 µM) | relative viability ([5]; first compound 1.265 µM) | relative viability ([5]; first compound 4 µM) | relative viability ([1]; first compound 0.4 µM)
1 | HCC-366 | 1.15 | 0.921 | 0.82 | 1 | 0.877 | 0.78 | 1.02 | 0.896 | 0.489 | 0.7 | 0.0818 | 0.107 | 0.0962 | 0.0628 | 0.0717 | 0.13 | 0.162 | 0.175 | 0.128 | –
2 | HCC-827 | 1.11 | 1.09 | 1.19 | 1.09 | – | 1.06 | 1.2 | 0.872 | – | 0.702 | 0.736 | 0.454 | – | 0.398 | 0.471 | 0.282 | – | 0.282 | 0.273 | –
3 | HOP-62 | 0.996 | 0.961 | 0.849 | 1.1 | – | 1.18 | 1.14 | 0.897 | – | 0.905 | 0.497 | 0.4 | – | 0.341 | 0.296 | 0.281 | – | 0.269 | 0.301 | –
4 | IA-LM | 1.08 | 0.968 | 0.623 | 1.1 | 0.886 | 1.14 | 0.716 | – | – | – | – | – | – | – | – | – | – | – | – | 0.665
5 | LC-2-ad | 0.462 | 0.392 | 0.261 | 1.14 | 0.891 | 0.898 | 0.827 | 0.982 | 0.709 | 0.721 | 0.483 | 0.537 | 0.411 | 0.388 | 0.374 | 0.288 | 0.264 | 0.26 | 0.227 | 0.383
6 | LCLC-97TM1 | 0.504 | 0.484 | 0.279 | 0.905 | – | 0.809 | 0.861 | 0.545 | – | 0.339 | 0.198 | 0.247 | – | 0.168 | 0.162 | 0.187 | – | 0.186 | 0.144 | –
7 | LCLC-103H | – | – | – | 0.828 | 0.74 | 0.632 | 0.625 | 0.519 | 0.4 | 0.438 | 0.384 | 0.522 | 0.341 | 0.356 | 0.289 | 0.49 | 0.394 | 0.416 | 0.378 | –
8 | LK-2 | 0.854 | 0.732 | 0.576 | 1.07 | – | 1.08 | 0.818 | 0.266 | – | 0.247 | 0.184 | 0.165 | – | 0.169 | 0.19 | 0.254 | – | 0.084 | 0.297 | 0.696
9 | LOU-NH91 | 0.852 | 0.549 | 0.464 | 0.948 | 0.786 | 0.859 | 0.827 | 0.709 | 0.665 | 0.629 | 0.543 | 0.689 | 0.539 | 0.441 | 0.484 | 0.357 | 0.383 | 0.368 | 0.457 | 0.596
10 | LU99A | 0.911 | 0.622 | 0.546 | 0.823 | 0.833 | 0.844 | 0.738 | 0.276 | 0.293 | 0.314 | 0.255 | 0.316 | 0.29 | 0.263 | 0.256 | 0.187 | 0.168 | 0.148 | 0.168 | 0.735
11 | LXF-289 | 0.917 | 1.01 | 1 | 0.983 | – | 1.04 | 1.05 | 0.78 | – | 0.805 | 0.532 | 0.212 | – | 0.186 | 0.182 | 0.968 | – | 0.8 | 0.824 | –
12 | NCI-H23 | 0.957 | 0.732 | 0.728 | 0.97 | – | 0.65 | 0.735 | 0.706 | – | 0.423 | 0.206 | 0.427 | – | 0.223 | 0.188 | 0.779 | 0.389 | 0.57 | 0.303 | –
13 | NCI-H322M | 1.23 | 0.799 | 0.479 | 1.01 | 0.836 | 0.623 | 0.544 | 0.619 | 0.467 | 0.383 | 0.372 | 0.51 | 0.505 | 0.377 | 0.342 | 0.666 | 0.536 | 0.595 | 0.482 | 0.932
14 | NCI-H358 | – | – | – | 0.876 | 0.573 | 0.653 | 0.474 | 1.09 | 0.349 | 0.519 | 0.376 | 0.121 | 0.0941 | 0.115 | 0.083 | 0.186 | 0.164 | 0.18 | 0.131 | –
15 | NCI-H522 | – | – | – | – | – | – | – | 0.739 | 0.762 | 0.684 | 0.67 | 0.611 | 0.464 | 0.541 | 0.574 | 0.986 | 0.846 | 1 | 1.15 | –
16 | NCI-H650 | – | – | – | 1.07 | 0.699 | 0.884 | 0.777 | 0.699 | 0.424 | 0.515 | 0.366 | 0.874 | 0.492 | 0.496 | 0.355 | 0.981 | 0.433 | 0.912 | 0.659 | –
17 | NCI-H661 | – | – | – | 1.1 | 1.01 | 0.892 | 0.884 | 0.864 | 0.593 | 0.635 | 0.577 | 0.346 | 0.368 | 0.334 | 0.364 | 0.93 | 0.966 | 0.865 | 0.666 | –
18 | NCI-H727 | 0.425 | 0.365 | 0.275 | 0.915 | 0.689 | 0.695 | 1.03 | 0.701 | 0.426 | 0.48 | 0.488 | 0.584 | 0.62 | 0.681 | 0.609 | – | – | – | – | 0.343
19 | NCI-H1792 | 0.651 | 0.573 | 0.414 | – | – | – | – | 0.815 | 0.675 | 0.782 | 0.699 | – | – | – | – | 0.772 | 0.78 | 0.78 | 0.331 | 0.512
20 | SW 900 | – | – | – | 1.05 | 0.477 | 0.817 | 0.424 | 0.648 | 0.304 | 0.388 | 0.207 | 0.649 | 0.413 | 0.38 | 0.349 | 0.493 | 0.463 | 0.464 | 0.258 | –

From the supplement of paper PMC10307832
